The source made the active and inactive calls. The calls are words filed in the database; no cut-off is given here.
Experiments:
LNCaP = experiment: Antiproliferative activity against human LNCaP cells with high PSMA expression assessed as effect on cell viability incubated for 72 hrs by MTT assay; format: functional, cell-based
CWR22R [1] = experiment: Antiproliferative activity against human 22Rv1 cells with high PSMA expression assessed as effect on cell viability incubated for 72 hrs by MTT assay; format: functional, cell-based; conditions: 22Rv1, 72 h
PC-3 = experiment: Antiproliferative activity against PSMA negative human PC-3 cells assessed as effect on cell viability incubated for 72 hrs by MTT assay; format: functional
[2] = Antiproliferative activity against PSMA negative human RWPE-1 cells assessed as effect on cell viability incubated for 72 hrs by MTT assay; format: toxicity, cell-based; conditions: RWPE-1 cells (PSMA negative)
CWR22R [3] = experiment: Induction of DNA damage in human 22Rv1 cells assessed as increase in number of gamma-H2AX foci at 100 uM incubated for 12 hrs by DAPI staining based immunofluorescence analysis; format: functional, cell-based
CWR22R [4] = experiment: Antiproliferative activity against human 22Rv1 cells assessed as reduction in cell viability at 125 uM in presence of DUPA; format: functional, cell-based
[5] = Drug uptake in PSMA positive human 22Rv1 cells at 10 uM measured after 1 to 6 hrs by LC-MS/MS analysis; format: ADME, cell-based; conditions: cwr22r, time 1-6 hrs
[6] = Drug uptake in PSMA negative human PC-3 cells at 10 uM measured after 1 to 6 hrs by LC-MS/MS analysis; format: ADME, cell-based; conditions: pc-3, 10 µM, time 1-6 hrs
[7] = Subacute toxicity in male ICR mouse assessed as decrease in body weight at 100 mg/kg, po administered via gavage for 30 days relative to control; format: organism-based; parameters: scale not given: the % may be the effect or the level left; conditions: in vivo, 720 h, time 30 day
[8] = Subacute toxicity in male ICR mouse assessed as decrease in red blood cells at 100 mg/kg, po administered via gavage for 30 days by blood routine test relative to control; format: organism-based; parameters: scale not given: the % may be the effect or the level left; conditions: in vivo, 720 h, time 30 day
[9] = Subacute toxicity in male ICR mouse assessed as decrease in hemoglobin level at 100 mg/kg, po administered via gavage for 30 days by blood routine test relative to control; format: organism-based; parameters: scale not given: the % may be the effect or the level left; conditions: in vivo, 720 h, time 30 day
[10] = Subacute toxicity in male ICR mouse assessed as decrease in hematocrit level at 100 mg/kg, po administered via gavage for 30 days by blood routine test relative to control; format: organism-based; parameters: scale not given: the % may be the effect or the level left; conditions: in vivo, 720 h, time 30 day
[11] = Subacute toxicity in male ICR mouse assessed as decrease in WBC level at 100 mg/kg, po administered via gavage for 30 days by blood routine test relative to control; format: organism-based; parameters: scale not given: the % may be the effect or the level left; conditions: in vivo, 720 h, time 30 day
[12] = Subacute toxicity in male ICR mouse assessed as decrease in neutrophil level at 100 mg/kg, po administered via gavage for 30 days by blood routine test relative to control; format: organism-based; parameters: scale not given: the % may be the effect or the level left; conditions: in vivo, 720 h, time 30 day
[13] = Subacute toxicity in male ICR mouse assessed as decrease in lymphocytes level at 100 mg/kg, po administered via gavage for 30 days by blood routine test relative to control; format: organism-based; parameters: scale not given: the % may be the effect or the level left; conditions: in vivo, 720 h, time 30 day
CWR22R [14] = experiment: Antitumor activity against human 22Rv1 cells xenografted in male BALB/c nude mouse at 100 mg/kg administered via gavage; format: functional, organism-based
[15] = Toxicity in male BALB/c nude mouse xenografted with human 22Rv1 cells assessed as decrease in body weight at 100 mg/kg administered via gavage; format: organism-based; conditions: in vivo, po
CWR22R [16] = experiment: Antitumor activity against human 22Rv1 cells xenografted in male BALB/c nude mouse assessed as tumor growth inhibition at 100 mg/kg administered via gavage relative to control; format: functional; conditions: 22Rv1, po, read-out: TGI
[17] = Toxicity in male BALB/c nude mouse xenografted with human 22Rv1 cells assessed as decrease in lymphocytes at 100 mg/kg administered via gavage by routine blood test; format: organism-based; conditions: in vivo, po
[18] = Toxicity in male BALB/c nude mouse xenografted with human 22Rv1 cells assessed as decrease in granulocytes at 100 mg/kg administered via gavage by routine blood test; format: organism-based; conditions: in vivo, po
[19] = Toxicity in male BALB/c nude mouse xenografted with human 22Rv1 cells assessed as decrease in red blood cells at 100 mg/kg administered via gavage by routine blood test; format: organism-based; conditions: in vivo, po
[20] = Toxicity in male BALB/c nude mouse xenografted with human 22Rv1 cells assessed as decrease in hemoglobin at 100 mg/kg administered via gavage by routine blood test; format: organism-based; conditions: in vivo, po

IC50 (LNCaP): 56.5 µM | Drug uptake [5]: Active | Drug uptake [6]: Active
Structure (SMILES): O=C(c1cc(Cc2n[nH]c(=O)c3ccccc23)ccc1F)N1CCN(C(=O)C2CC2)CC1 [OLAPARIB]
IC50 (CWR22R [1]): 61.6 µM | CC50 (PC-3): 91.5 µM | CC50 at 72 h [2]: 85.5 µM | Activity (CWR22R [3]): Active | Activity (CWR22R [4]): Active; Drug Mode Of Action Appears To Be Independent Of Binding To Psma Receptor | Activity [7]: 8% | Activity [8]: 15.73% | Activity [9]: 11.69% | Activity [10]: 12.82% | Activity [11]: 28.12% | Activity [12]: 10.4% | Activity [13]: 32.71% | Activity (CWR22R [14]): Active | Activity [15]: Non-toxic | inhibition in vivo at 100 mg/kg (CWR22R [16]): 61% | Activity [17]: Toxic | Activity [18]: Toxic | Activity [19]: Toxic | Activity [20]: Toxic
